Reference: US12616704B2, “Cannabichromene formulation for pain management” (Zyus Life Sciences Inc., priority 2020, dated 2026)

Experiments:
[1] = system: SNL-induced motor phenotype; assay: Fine motor kinematic gait analysis (MotoRater) in SNL model; type: in vivo, Sprague-Dawley rats; conditions: for overall gait score, CBC compared to pregabalin: p: CBC 10 mg/kg vs. pregabalin 50 mg/kg; for Overall kinematic gait score, Vehicle vs. treatment: Summary / Overall kinematic gait score, Vehicle vs. treatment: Predicted (LS) mean diff.: between groups
Experimental: The treatment groups received the following test article mixtures: • Group 1: treated with vehicle (0.9% saline) • Group 2: treated with Pregabalin (50 mg/kg) • Group 3: treated with CBC (10 mg/kg)
Administration of Treatments. CBC (cannabichromene) formulation, the vehicle, or pregabalin treatment was administered according to Table 1 on study day 8 to all study animals, and on study day 10 to 6 animals per group. The dousing route of CBC or the vehicle were intragastric (p.o.), while pregabalin was administered intraperitoneally (i.p.). In addition to D8, pregabalin was administered on D9, at 2 h prior to the evf test. All animals of the pregabalin group were euthanized on D9, following the last test trial. The CBC was dissolved and diluted to one of the following vehicles:
Fine Motor Kinematic Gait Analysis. The subjected to gait analysis at the baseline and on study days 8, 9, 11, 14 and 17, at a minimum of 30 min after the evF test. The assay was carried out by MotoRater (TSE Systems, Homburg, Germany), with the walking mode. Prior to commencing the test, the essential body points (e.g. joints, limbs, nose, tail) were marked for tracking. The information of the gait performance was captured using a high speed camera (300 frames/second) from below and both sides. Next, the captured videos are converted to custom software. The raw data was obtained by tracking the marked points of the body from the videos recorded from all 3 dimensions. The raw data thus comprise correlation of the movements of different body points in coordinates related to the ground and each three dimensions.
Different gait patterns and movements were analyzed using a custom made automated analysis system. Information about altogether over a hundred kinematic parameters were attained. These comprised e.g:
All MotoRater data were analyzed for the distinct parameters, as well as for all combined parameters, using principal component analysis (PCA). The obtained results produce the model phenotype in gait analysis i.e. the difference between vehicle and cannabinoid treated animals regarding both individual parameters and PCA.
In addition to the baseline test, the motorater test was performed altogether four times over the course of behavioral study phase: • on D7, to assess the model-specific motor defects prior to dosing, • on D8, after finishing the 4-h evF, • on D8, after finishing the 8-h evF, and • on D9, after finishing the 24-h evF.
The kinematic assay was not performed to the animals before a minimum of 30 min after evF test.

[2] = Body weight monitoring in SNL study; type: in vivo, Sprague-Dawley rats; conditions: SNL rats; CBC 10 mg/kg, pregabalin 50 mg/kg; two-way ANOVA, Tukey's
Experimental: Body Weight Monitoring. The body weight of the animals was recorded at baseline evF testing, on the day of surgery (DO), and daily thereafter.

SNL model effect = assay: Data mining (cPCA) of kinematic gait data: SNL model (analgesic) and sedation effect scores; type: in vivo, rats
Experimental: Data mining was successfully performed to extend the multivariate kinematic data analysis and capture the analgesic effect of cannabichromene (CBC) on quantitative measurement of parameters attributed to the temporal aspects of motion to evaluate temporal aspects of motion, such as positions, angles, velocities, and accelerations of body segments and joints during motion.
Overall, 97 gait parameters were analyzed, and each parameter was averaged within each treatment group. A statistical method using Contrastive Principal Component Analysis (cPCA) was employed (Abid et al., 2018). The method of cPCA was designed to identify different combinations of original variables linked to the Spinal Nerve Ligation (SNL) model effect (pain) and learning effect. An orthogonalization procedure was then performed to create the obtained effects independent of learning and possible sedation. After the contrastive principal components (cPCs) (Model, Sedative) were established, the corresponding cPC scores were computed for each observation. The obtained cPC scores were further analyzed by using mixed two-way ANOVA followed by Dunnett's test of the estimated marginal means. The cPCA based analysis framework was implemented using R environment (R version 3.6.3). Statistical analysis was performed using Ime4 (Bates et al., 2015) and emmeans (R package version 1.4.5.) packages. The results of these comparisons were obtained by using all the previously identified components: model effect, learning effect and model orthogonal to learning.

[3] = BL (before dosing), vehicle vs. CBC 10 mg/kg group
[4] = D 8 5 h, vehicle vs. CBC 10 mg/kg
[5] = Table 8, BL (before dosing), vehicle vs. CBC 10 mg/kg group
[6] = Table 8, D 8 5 h, vehicle vs. CBC 10 mg/kg
[7] = within group, CBC 10 mg/kg p.o., pregabalin 50 mg/kg i.p.
[8] = within group, z-score, CBC 10 mg/kg p.o., pregabalin 50 mg/kg i.p.

## CCCCCc1cc(O)c2c(c1)OC(C)(CCC=C(C)C)C=C2 (centres unmarked) [CBC, cannabichromene]
[1]; 5 h PD
  overall gait score, CBC compared to pregabalin: p: 0.07693
[1]; 9 h PD
  overall gait score, CBC compared to pregabalin: p: 0.04717
[1]; [3]
  Ankle ROM Deviation [degree]: Stats: 2.98
  Homolateral Interlimb coordination: Stats: 2.84
  Swing Speed Metric, Hind: Stats: −3.67
[1]; BL (before dosing), vehicle vs. treatment group
  Knee ROM Deviation [degree]: Stats: 2.88
[1]; Baseline (before SNL and dosing)
  Overall kinematic gait score, Vehicle vs. treatment: Summary: ns
[1]; Baseline (before SNL and dosing), z-score
  Overall kinematic gait score, Vehicle vs. treatment: Predicted (LS) mean diff.: −1
[1]; CBC 10 mg/kg
  overall Gait score compared to Vehicle: did not show a significant reduction in overall Gait score compared to Vehicle
  overall gait score, within group comparisons over time: did not identify a significant time-bound overall gait score difference
[1]; D7 (pre-dosing)
  Overall kinematic gait score, Vehicle vs. treatment: Summary: ns
[1]; D7 (pre-dosing), z-score
  Overall kinematic gait score, Vehicle vs. treatment: Predicted (LS) mean diff.: 0.1511
[1]; D8 5 h, CBC 10 mg/kg p.o., pregabalin 50 mg/kg i.p.
  Overall kinematic gait score, Vehicle vs. treatment: Summary: ns
[1]; [4]
  Hip Angle, Max [degree]: Stats: 4.29
  Knee Angle, Min [degree]: Stats: 3.78
  Mean Hip Jerk [m/s3]: Adjusted p-value: 0.01
  Mean Hip Jerk [m/s3]: Adjusted p-value Sig?: ** (** p≤0.01)
  Mean Hip Jerk [m/s3]: Stats: −3.04
  Mean Hip Jerk [m/s3]: p-value: 0.01
  Protraction, Hind [m]: Stats: −4.42
  Retraction, Hind [m]: Stats: 4.26
  Step Width, Fore [mm]: Stats: −2.86
[1]; D 8 5 h, vehicle vs. treatment, CBC 10 mg/kg, pregabalin 50 mg/kg
  Ankle Angle, Max [degree]: Stats: −2.85
[1]; D8 5 h, z-score, CBC 10 mg/kg p.o., pregabalin 50 mg/kg i.p.
  Overall kinematic gait score, Vehicle vs. treatment: Predicted (LS) mean diff.: 1.116
[1]; D8 9 h, CBC 10 mg/kg p.o., pregabalin 50 mg/kg i.p.
  Overall kinematic gait score, Vehicle vs. treatment: Summary: ns
[1]; D8 9 h, z-score, CBC 10 mg/kg p.o., pregabalin 50 mg/kg i.p.
  Overall kinematic gait score, Vehicle vs. treatment: Predicted (LS) mean diff.: 0.654
[1]; D9, CBC 10 mg/kg p.o., pregabalin 50 mg/kg i.p.
  Overall kinematic gait score, Vehicle vs. treatment: Summary: ns
[1]; D9, z-score, CBC 10 mg/kg p.o., pregabalin 50 mg/kg i.p.
  Overall kinematic gait score, Vehicle vs. treatment: Predicted (LS) mean diff.: −0.4602
[1]; D9 post-dosing, CBC 10 mg/kg
  Homolateral Interlimb coordination, CBC vs. Vehicle: p: 0.03
[1]; [5]
  Ankle ROM: Significance: * (p<0.05, significant)
  Ankle ROM: Statistic: 2.98
  Homolateral: Significance: * (p<0.05, significant)
  Homolateral: Statistic: 2.84
  Knee ROM: Significance: * (p<0.05, significant)
  Knee ROM: Statistic: 2.88
  Swing Speed: Significance: ** (p<0.01, very significant)
  Swing Speed: Statistic: −3.67
[1]; [6]
  Ankle Angle. Max: Significance: * (p<0.05, significant)
  Ankle Angle. Max: Statistic: −2.85
  Hip Angle. Max: Significance: *** (p<0.001, extremely/highly significant)
  Hip Angle. Max: Statistic: 4.29
  Knee Angle. Min: Significance: ** (p<0.01, very significant)
  Knee Angle. Min: Statistic: 3.78
  Mean Hip Jerk: Significance: * (p<0.05, significant)
  Mean Hip Jerk: Statistic: −3.04
  Mean Hip Jerk: p-value: 0.00953
  Protraction. Hind: Significance: *** (p<0.001, extremely/highly significant)
  Protraction. Hind: Statistic: −4.42
  Retraction. Hind: Significance: *** (p<0.001, extremely/highly significant)
  Retraction. Hind: Statistic: 4.26
  Step Width. Fore: Significance: * (p<0.05, significant)
  Step Width. Fore: Statistic: −2.86
[1]; baseline to D9, CBC 10 mg/kg
  Support Metric gait variables compared to Vehicle: No statistical significance was observed
[1]; [7]
  Overall kinematic gait score, D7 vs. D8 5 h: Summary: ns
  Overall kinematic gait score, D7 vs. D8 9 h: Summary: ns
  Overall kinematic gait score, D7 vs. D9: Summary: ns
[1]; within group, before dosing
  Overall kinematic gait score, D7 vs. Baseline: Summary: ** (p<0.01, very significant)
[1]; [8]
  Overall kinematic gait score, D7 vs. D8 5 h: Predicted (LS) mean diff.: −0.5337
  Overall kinematic gait score, D7 vs. D8 9 h: Predicted (LS) mean diff.: −1.516
  Overall kinematic gait score, D7 vs. D9: Predicted (LS) mean diff.: −1.619
[1]; within group, z-score, before dosing
  Overall kinematic gait score, D7 vs. Baseline: Predicted (LS) mean diff.: 2.236
[2]
  body weight vs. vehicle over the course of the study: not significantly different
SNL model effect; 9 hours post-dosing, single dose CBC 10 mg/kg p.o.
  SNL model effect score (analgesic effect): No significant analgesic effect
SNL model effect; D8 5 h post-dosing, single dose CBC 10 mg/kg p.o.
  SNL model score (analgesic effect) compared to vehicle group: p: < 0.05
SNL model effect; D8, 5 h and D8, 9 h post-dosing, CBC 10 mg/kg, CBD:THC 10:10 mg/kg
  independent sedation effect score: did not exert any sedative effect
